Reference: patent US7064120B2, “Tricyclic pyridyl carboxamides and derivatives thereof tocolytic oxytocin receptor antagonists” (Wyeth, priority 2001, dated 2006)

Target: T1, human oxytocin receptor (Homo sapiens, UniProt P30559)
T1 construct: host or cells: CHO cells, stably transfected (pcDNA3.1 vector)
T1 sequence (P30559 1-389): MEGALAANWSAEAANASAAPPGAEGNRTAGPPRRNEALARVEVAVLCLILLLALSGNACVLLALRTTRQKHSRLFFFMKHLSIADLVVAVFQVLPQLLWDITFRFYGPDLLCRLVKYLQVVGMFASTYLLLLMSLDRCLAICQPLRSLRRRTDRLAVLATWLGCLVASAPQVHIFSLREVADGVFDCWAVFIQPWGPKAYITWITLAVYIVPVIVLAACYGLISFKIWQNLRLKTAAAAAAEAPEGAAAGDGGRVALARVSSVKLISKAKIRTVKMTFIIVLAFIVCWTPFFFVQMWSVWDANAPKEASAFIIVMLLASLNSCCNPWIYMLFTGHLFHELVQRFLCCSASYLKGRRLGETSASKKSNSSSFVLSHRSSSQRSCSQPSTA
Assay: Oxytocin binding in CHO cell membranes expressing human oxytocin receptors ([3H]oxytocin radioligand binding)
Conditions: 100 nM; for inhibition at 0.1 µM: read-out: OT % inhibition @ 100 nM
Protocol: Oxytocin Binding in Chinese Hamster Ovary Cell Membranes Expressing Human Oxytocin Receptors
Cell Culture medium (e.g. 30 mL for 1:30 split) is immediately added and mixed well to inactivate trypsin. 1 mL of detached cells is added to new culture flasks containing fresh Cell Culture medium (e.g. into 25 mL per T-150 flask), and mixed gently. The cells are incubated at 37° C. in 5% CO2. The medium is changed at 3 to 4 days interval (or as appropriate). […] All steps are done under sterile conditions.
The cells are washed twice gently with Hank's Balanced Salt solution (e.g., use 10 mL per T-150 flask). […] The contents are transferred to centrifuge tubes (50 mL size) kept in ice bath. All subsequent steps are done at 4° C. The tubes are centrifuged at 300×g for 15 min (1380 rpm on SORVAL, Model RT6000D, using rotor for 50 mL tubes). The supernatant is discarded and the cells suspended in homogenizing buffer (10 mM Tris-HCl containing 0.25 M sucrose and 1 mM EDTA, pH 7.4) ensuring that the volume of the buffer is about ten times the volume of the cell pellet. The cells are pooled into a centrifuge tube (50 mL) and homogenized with a Polytron at setting 6 for 10 sec. The homogenate is transferred into a Potter-Elvjehm homogenizer and homogenized with 3 strokes. The homogenate is centrifuged at 1500×g for 10 min at 4° C. (3100 rpm using SORVAL, model RT6000D, using a rotor for 50 mL tubes). The pellet is discarded. The supernatant is centrifuged at 100,000×g for 60 min. at 4° C. (Beckman L8-80M ultracentrifuge; spin at 37,500 rpm with rotor type 70 Ti for 50 mL tubes; 38,000 rpm with rotor type 8OTi for 15 mL tubes; or 35,800 rpm with rotor type 45Ti). The supernantant is discarded and the pellet suspended in 3 to 4 mL of Tris buffer (50 mM TRIS-HCl, pH 7.4). The protein content is estimated by the Bradford or Lowry method. The volume of the membrane suspension is adjusted with the membrane buffer (50 mM Tris-HCl containing 0.1% BSA and 0.1 mM PMSF) to give 3.0 mg/mL (or as appropriate) of protein. The membranes are aliquoted and stored at −70° C.
In wells of a 96-well format microtiter plate, is added 90, 110 or 130 μL (to make up a final volume of 200 μL) of assay buffer containing 50 mM of Tris-HCl (pH 7.4), […], 1 mg % aprotinin, 1 mg % leupeptin, 2 mg % 1,10-phenanthroline, 10 mg % trypsin inhibitor, and 0.1 mM PMSF. The inhibitors are added on the day of the experiment. The components are mixed at room temperature, and then kept in ice bath following adjustment of the pH to 7.4. […] For oxytocin and other peptide ligands, 20 μL of 50% DMSO is added and the assay buffer volume is adjusted accordingly. To each well is added 50 μL of frozen membrane suspension thawed immediately prior to use and diluted in assay buffer to the required concentration (equivalent to 25 to 50 μg of protein/well as needed). 20 μL of 8 nM [^3H]oxytocin in the assay buffer, prepared just before use is added and incubated at room temperature for 60 min. shaking the plate on a mechanical shaker for the first 15 min. The incubation is stopped by rapid filtration of the plate contents followed by washing with ice-cold buffer (50 mM Tris-HCl, pH 7.4) using a cell harvester (Tomtek and Printed filtermat-B filter paper). The filter paper is thoroughly dried (7–12 min. in a microwave oven) and impregnated with MeltiLex B/H melt-on scintillation wax sheets and the radioactivity counted in a betaplate scintillation counter.
Binding data is either reported as percent inhibition at a certain concentration or if an IC50 was calculated, as a nanomolar concentration.

inhibition at 0.1 µM [%]	Compound	OT % inhibition @ 100 nM [%]
–	Cc1cc(C(=O)N2Cc3ccc(C(=O)NCCc4ccccn4)n3Cc3ccccc32)ccc1-c1ccccc1C(F)(F)F [Example 61, 10-{[2-Methyl-2′-trifluoromethyl=[1,1′-biphenyl]-4-yl]carbonyl}-N-[2-(2-pyridinyl)ethyl]-10,11-dihydro-5H-pyrrolo[2,1-c][1,4]benzodiazepine-3-carboxamide]	26
96	COc1ccccc1-c1ccc(C(=O)N2Cc3ccc(C(=O)N4CCCCC4c4cccnc4)n3Cc3ccccc32)cc1 (stereo not drawn) [Example 139, {10-[(2′-Methoxy-[1,1′-biphenyl]-4-yl)carbonyl]-10,11-dihydro-5H-pyrrolo[2,1-c][1,4]benzodiazepin-3-yl}[2-(3-pyridinyl)-1-piperidinyl]methanone]	–
91	COc1ccccc1-c1ccc(C(=O)N2Cc3ccc(C(=O)N(C)CCc4ccccn4)n3Cc3ccccc32)cc1OC [Example 64, 10-[(2,2′-Dimethoxy-[1,1′-biphenyl]-4-yl)carbonyl]-N-methyl-N-[2-(2-pyridinyl)ethyl]-10,11-dihydro-5H-pyrrolo[2,1-c][1,4]benzodiazepine-3-carboxamide]	–
31	COc1cccc(-c2cc(OC)c(C(=O)N3Cc4ccc(C(=O)NCCc5ccccn5)n4Cc4ccccc43)cc2Cl)c1 [Example 56, 10-[(6-Chloro-3,3′-dimethoxy-[1,1′-biphenyl]-4-yl)carbonyl]-N-[2-(2-pyridinyl)ethyl]-10,11-dihydro-5H-pyrrolo[2,1-c][1,4]benzodiazepine-3-carboxamide]	–
40	COc1cccc(-c2ccc(C(=O)N3Cc4ccc(C(=O)NCCc5ccccn5)n4Cc4ccccc43)cc2OC)c1 [Example 59, 10-[(2,3′-Dimethoxy-[1,1′-biphenyl]-4-yl)carbonyl]-N-[2-(2-pyridinyl)ethyl]-10,11-dihydro-5H-pyrrolo[2,1-c][1,4]benzodiazepine-3-carboxamide]	–
38	COc1cc(C(=O)N2Cc3ccc(C(=O)N4CCN(c5ccncc5)CC4)n3Cc3ccccc32)ccc1-n1c(C)ccc1C [Example 146, {10-[4-(2,5-Dimethyl-1H-pyrrol-1-yl)-3-methoxybenzoyl]-10,11-dihydro-5H-pyrrolo[2,1-c][1,4]benzodiazepin-3-yl}[4-(pyridin-4-yl)-1-piperazinyl]methanone]	–
18	COc1cc(C(=O)N2Cc3ccc(C(=O)NCc4ccccn4)n3Cc3ccccc32)ccc1-c1cccc2ccccc12 [Example 31, 10-[3-Methoxy-4-(naphthalen-1-yl)benzoyl]-N-(2-pyridinylmethyl)-10,11-dihydro-5H-pyrrolo[2,1-c][1,4]benzodiazepine-3-carboxamide]	–
83	COc1cc(-c2ccccc2C)c(Cl)cc1C(=O)N1Cc2ccc(C(=O)N3CCN(c4ccncc4)CC3)n2Cc2ccccc21 [Example 119, {10-[(6-Chloro-3-methoxy-2′-methyl-[1,1′-biphenyl]-4-yl)carbonyl]-10,11-dihydro-5H-pyrrolo[2,1-c][1,4]benzodiazepin-3-yl}[4-(4-pyridinyl)-1-piperazinyl]methanone]	–
27	Cc1cc(C(=O)N2Cc3ccc(C(=O)NCc4ccccn4)n3Cc3ccccc32)ccc1-c1ccccc1C(F)(F)F [Example 35, 10-{[2-Methyl-2′-trifluoromethyl-[1,1′-biphenyl]-4-yl]carbonyl}-N-(2-pyridinylmethyl)-10,11-dihydro-5H-pyrrolo[2,1-c][1,4]benzodiazepine-3-carboxamide]	–
55	COc1cc(C(=O)N2Cc3ccc(C(=O)NCCc4ccccn4)n3Cc3ccccc32)ccc1-c1ccccc1C [Example 54, 10-[(2-Methoxy-2′-methyl-[1,1′-biphenyl]-4-yl)carbonyl]-N-[2-(2-pyridinyl)ethyl]-10,11-dihydro-5H-pyrrolo[2,1-c][1,4]benzodiazepine-3-carboxamide]	–
97	COc1ccccc1-c1ccc(C(=O)N2Cc3ccc(C(=O)N4CCCCC4c4cccnc4)n3Cc3ccccc32)cc1C (stereo not drawn) [Example 138, {10-[(2′-Methoxy-2-methyl-[1,1′-biphenyl]-4-yl)carbonyl]-10,11-dihydro-5H-pyrrolo[2,1-c][1,4]benzodiazepin-3-yl}[2-(3-pyridinyl)-1-piperidinyl]methanone]	–
64	COc1cc(C(=O)N2Cc3ccc(C(=O)N(C)CCc4ccncc4)n3Cc3ccccc32)ccc1-n1c(C)ccc1C [Example 147, 10-[4-(2,5-Dimethyl-1H-pyrrol-1-yl)-3-methoxybenzoyl]-N-methyl-N-[2-(pyridin-4-yl)ethyl]-10,11-dihydro-5H-pyrrolo[2,1-c][1,4]benzodiazepine-3-carboxamide]	–
50	COc1cccc(-c2ccc(C(=O)N3Cc4ccc(C(=O)NCc5ccccn5)n4Cc4ccccc43)cc2C)c1 [Example 25, 10-[(3′-Methoxy-2-methyl-[1,1′-biphenyl]-4-yl)carbonyl]-N-(2-pyridinylmethyl)-10,11-dihydro-5H-pyrrolo[2,1-c][1,4]benzodiazepine-3-carboxamide]	–
–	COc1cccc(-c2ccc(C(=O)N3Cc4ccc(C(=O)N(C)Cc5cccnc5)n4Cc4ccccc43)cc2OC)c1 [Example 110]	94
95	COc1cccc(-c2ccc(C(=O)N3Cc4ccc(C(=O)N5CCN(c6ccncc6)CC5)n4Cc4ccccc43)cc2OC)c1 [Example 123, {10-[(2,3′-Dimethoxy-[1,1′-biphenyl]-4-yl)carbonyl]-10,11-dihydro-5H-pyrrolo[2,1-c][1,4]benzodiazepin-3-yl}[4-(4-pyridinyl)-1-piperazinyl]methanone]	–
22	COc1cc(C(=O)N2Cc3ccc(C(=O)NCc4cccnc4)n3Cc3ccccc32)ccc1-c1cccc2ccccc12 [Example 44, 10-[3-Methoxy-4-(naphthalen-1-yl)benzoyl]-N-(3-pyridinylmethyl)-10,11-dihydro-5H-pyrrolo[2,1-c][1,4]benzodiazepine-3-carboxamide]	–
70	COc1cc(C(=O)N2Cc3ccc(C(=O)N(C)Cc4cccnc4)n3Cc3ccccc32)ccc1-c1cccc2ccccc12 [Example 109, 10-[3-Methoxy-4-(naphthalen-1-yl)benzoyl]-N-methyl-N-(3-pyridinylmethyl)-10,11-dihydro-5H-pyrrolo[2,1-c][1,4]benzodiazepine-3-carboxamide]	–
101	COc1ccccc1-c1ccc(C(=O)N2Cc3ccc(C(=O)N4CCN(c5ccncc5)CC4)n3Cc3ccccc32)cc1 [Example 116, {10-[(2′-Methoxy-[1,1′-biphenyl]-4-yl)carbonyl]-10,11-dihydro-5H-pyrrolo[2,1-c][1,4]benzodiazepin-3-yl}[4-(4-pyridinyl)-1-piperazinyl]methanone]	–
